Converted amounts (≈) assume the structure as drawn. Like-named read-outs stand apart in the source and are kept apart here.
Legend:
Water solubility = format: physicochemical
Phytophthora infestans [1] = format: in vivo, Phytophthora infestans (on tomato plants cv Prof. Rudloff); conditions: soil drench 2 days before infection, tomato
tomato plants = conditions: in vivo
Phytophthora infestans [2] = conditions: sunlight excluded; only the Z-isomer; reported in Brighton Crop Protection Conference, 1988, 17-24; cited from earlier work
[3] = 6.25 ppm active ingredient (0.11 kg/ha)
[4] = 12.5 ppm active ingredient (0.2 kg/ha)
[5] = 25 ppm active ingredient (0.44 kg/ha)
[6] = 50 ppm active ingredient (0.88 kg/ha)
[7] = 100 ppm active ingredient (1.76 kg/ha)

SMILES | solubility (Water solubility) | Activity in % (ABBOTT formula, diseased leaf area) (Phytophthora infestans [1]; [3]) | Activity in % (ABBOTT formula, diseased leaf area) (Phytophthora infestans [1]; [4]) | Activity in % (ABBOTT formula, diseased leaf area) (Phytophthora infestans [1]; [5]) | Activity in % (ABBOTT formula, diseased leaf area) (Phytophthora infestans [1]; [6]) | Activity in % (ABBOTT formula, diseased leaf area) (Phytophthora infestans [1]; [7]) | initial concentrations in the leaves, Z-isomer relative to E-isomer (tomato plants) | fungitoxicity in vitro (Phytophthora infestans [2])
COc1ccc(/C(=C/C(=O)N2CCOCC2)c2ccc(Cl)cc2)cc1OC [E-isomer] | 30 µg/mL (≈ 77.3 µM) | 16% | 47% | 71% | 94% | 97% |  | 
COc1ccc(C(=CC(=O)N2CCOCC2)c2ccc(Cl)cc2)cc1OC [E/Z 50:50, 4-[3-(4-chlorophenyl)-3-(3,4-dimethoxyphenyl)-acryloyl]morpholine] |  | 91% | 98% | 100% | 100% | 100% |  | 
COc1ccc(/C(=C\C(=O)N2CCOCC2)c2ccc(Cl)cc2)cc1OC [Z-isomer, Z-isomer of 4-[3-(4-chlorophenyl)-3-(3,4-dimethoxyphenyl)acryloyl]morpholine] | 7 µg/mL (≈ 18 µM) | 100% | 100% | 100% | 100% | 100% | about 5 times higher | fungitoxic

From patent US5656630A, “Method of combating fungus” (American Cyanamid Company, priority 1993, dated 1997)
